From patent US20130237511A1, “Copper Ion Delivery Platform for Pharmaceutical Agents” (University System of Georgia, priority 2012, published 2013)

Columns and labels:
[1] = ionic strengths 0.01 to 1, 25 and 37° C.; cited from earlier work
[2] = test system: 786-0; experiment: NCI 60 cell line panel, single dose; format: cell-based; conditions: Renal Cancer, 786-0, single dose
Source text: (§1) This complex performed at a similar level compared to individual tests for copper(II) sulfate as well as quinine sulfate (NSC).

[3] = test system: A549/ATCC; experiment: NCI 60 cell line panel, single dose; format: cell-based; conditions: Non-Small Cell Lung Cancer
Source text: as §1

[4] = test system: ACHN; experiment: NCI 60 cell line panel, single dose; format: cell-based; conditions: Renal Cancer
Source text: as §1

[5] = test system: BT-549; experiment: NCI 60 cell line panel, single dose; format: cell-based; conditions: Breast Cancer, BT-549, single dose
Source text: as §1

[6] = test system: CAKI-1; experiment: NCI 60 cell line panel, single dose; format: cell-based; conditions: Renal Cancer, CAKI-1, single dose
Source text: as §1

[7] = test system: CCRF-CEM; experiment: NCI 60 cell line panel, single dose; format: cell-based; conditions: Leukemia
Source text: as §1

[8] = test system: COLO 205; experiment: NCI 60 cell line panel, single dose; format: cell-based; conditions: Colon Cancer, COLO 205, single dose
Source text: as §1

[9] = test system: DU-145; experiment: NCI 60 cell line panel, single dose; format: cell-based; conditions: Prostate Cancer, DU-145, single dose
Source text: as §1

[10] = test system: EKVX; experiment: NCI 60 cell line panel, single dose; format: cell-based; conditions: Non-Small Cell Lung Cancer
Source text: as §1

[11] = test system: HCC-2998; experiment: NCI 60 cell line panel, single dose; format: cell-based; conditions: Colon Cancer, HCC-2998, single dose
Source text: as §1

[12] = test system: HCT-116; experiment: NCI 60 cell line panel, single dose; format: cell-based; conditions: Colon Cancer, HCT-116, single dose
Source text: as §1

[13] = test system: HCT-15; experiment: NCI 60 cell line panel, single dose; format: cell-based; conditions: Colon Cancer, HCT-15, single dose
Source text: as §1

[14] = test system: HL-60(TB); experiment: NCI 60 cell line panel, single dose; format: cell-based; conditions: Leukemia
Source text: as §1

[15] = test system: HOP-62; experiment: NCI 60 cell line panel, single dose; format: cell-based; conditions: Non-Small Cell Lung Cancer, HOP-62, single dose
Source text: as §1

[16] = test system: HOP-92; experiment: NCI 60 cell line panel, single dose; format: cell-based; conditions: Non-Small Cell Lung Cancer, HOP-92, single dose
Source text: as §1

[17] = test system: HS 578T; experiment: NCI 60 cell line panel, single dose; format: cell-based; conditions: Breast Cancer
Source text: as §1

[18] = test system: HT29; experiment: NCI 60 cell line panel, single dose; format: cell-based; conditions: Colon Cancer
Source text: as §1

[19] = test system: IGROV1; experiment: NCI 60 cell line panel, single dose; format: cell-based; conditions: Ovarian Cancer
Source text: as §1

[20] = test system: KM12; experiment: NCI 60 cell line panel, single dose; format: cell-based; conditions: Colon Cancer
Source text: as §1

[21] = test system: LOX IMVI; experiment: NCI 60 cell line panel, single dose; format: cell-based; conditions: Melanoma
Source text: as §1

[22] = test system: M14; experiment: NCI 60 cell line panel, single dose; format: cell-based; conditions: Melanoma
Source text: as §1

[23] = test system: MALME-3M; experiment: NCI 60 cell line panel, single dose; format: cell-based; conditions: Melanoma
Source text: as §1

[24] = test system: MCF7; experiment: NCI 60 cell line panel, single dose; format: cell-based; conditions: Breast Cancer
Source text: as §1

[25] = test system: MDA-MB-231/ATCC; experiment: NCI 60 cell line panel, single dose; format: cell-based; conditions: Breast Cancer
Source text: as §1

[26] = test system: MDA-MB-435; experiment: NCI 60 cell line panel, single dose; format: cell-based; conditions: Melanoma, MDA-MB-435, single dose
Source text: as §1

[27] = test system: MDA-MB-468; experiment: NCI 60 cell line panel, single dose; format: cell-based; conditions: Breast Cancer, MDA-MB-468, single dose
Source text: as §1

[28] = test system: MOLT-4; experiment: NCI 60 cell line panel, single dose; format: cell-based; conditions: Leukemia, MOLT-4, single dose
Source text: as §1

[29] = test system: NCI-H226; experiment: NCI 60 cell line panel, single dose; format: cell-based; conditions: Non-Small Cell Lung Cancer
Source text: as §1

[30] = test system: NCI-H23; experiment: NCI 60 cell line panel, single dose; format: cell-based; conditions: Non-Small Cell Lung Cancer
Source text: as §1

[31] = test system: NCI-H322M; experiment: NCI 60 cell line panel, single dose; format: cell-based; conditions: Non-Small Cell Lung Cancer
Source text: as §1

[32] = test system: NCI-H460; experiment: NCI 60 cell line panel, single dose; format: cell-based; conditions: Non-Small Cell Lung Cancer
Source text: as §1

[33] = test system: NCI-H522; experiment: NCI 60 cell line panel, single dose; format: cell-based; conditions: Non-Small Cell Lung Cancer
Source text: as §1

[34] = test system: NCI/ADR-RES; experiment: NCI 60 cell line panel, single dose; format: cell-based; conditions: Ovarian Cancer
Source text: as §1

[35] = test system: OVCAR-3; experiment: NCI 60 cell line panel, single dose; format: cell-based; conditions: Ovarian Cancer, OVCAR-3, single dose
Source text: as §1

[36] = test system: OVCAR-4; experiment: NCI 60 cell line panel, single dose; format: cell-based; conditions: Ovarian Cancer, OVCAR-4, single dose
Source text: as §1

[37] = test system: OVCAR-5; experiment: NCI 60 cell line panel, single dose; format: cell-based; conditions: Ovarian Cancer, OVCAR-5, single dose
Source text: as §1

[38] = test system: OVCAR-8; experiment: NCI 60 cell line panel, single dose; format: cell-based; conditions: Ovarian Cancer, OVCAR-8, single dose
Source text: as §1

[39] = test system: RPMI-8226; experiment: NCI 60 cell line panel, single dose; format: cell-based; conditions: Leukemia, RPMI-8226, single dose
Source text: as §1

[40] = test system: RXF 393; experiment: NCI 60 cell line panel, single dose; format: cell-based; conditions: Renal Cancer, RXF 393, single dose
Source text: as §1

[41] = test system: SK-MEL-28; experiment: NCI 60 cell line panel, single dose; format: cell-based; conditions: Melanoma, SK-MEL-28, single dose
Source text: as §1

[42] = test system: SK-MEL-2; experiment: NCI 60 cell line panel, single dose; format: cell-based; conditions: Melanoma, SK-MEL-2, single dose
Source text: as §1

[43] = test system: SK-OV-3; experiment: NCI 60 cell line panel, single dose; format: cell-based; conditions: Ovarian Cancer, SK-OV-3, single dose
Source text: as §1

[44] = test system: SN12C; experiment: NCI 60 cell line panel, single dose; format: cell-based; conditions: Renal Cancer
Source text: as §1

[45] = test system: SR; experiment: NCI 60 cell line panel, single dose; format: cell-based; conditions: Leukemia
Source text: as §1

[46] = test system: SW-620; experiment: NCI 60 cell line panel, single dose; format: cell-based; conditions: Colon Cancer, SW-620, single dose
Source text: as §1

[47] = test system: T-47D; experiment: NCI 60 cell line panel, single dose; format: cell-based; conditions: Breast Cancer
Source text: as §1

[48] = test system: TK-10; experiment: NCI 60 cell line panel, single dose; format: cell-based; conditions: Renal Cancer, TK-10, single dose
Source text: as §1

[49] = test system: UACC-257; experiment: NCI 60 cell line panel, single dose; format: cell-based; conditions: Melanoma, UACC-257, single dose
Source text: as §1

[50] = test system: UACC-62; experiment: NCI 60 cell line panel, single dose; format: cell-based; conditions: Melanoma, UACC-62, single dose
Source text: as §1

[51] = test system: UO-31; experiment: NCI 60 cell line panel, single dose; format: cell-based; conditions: Renal Cancer, UO-31, single dose
Source text: as §1

[52] = test system: SF-268; experiment: NCI 60 cell line panel, single dose; format: cell-based; conditions: CNS Cancer, SF-268, single dose
[53] = test system: SF-295; experiment: NCI 60 cell line panel, single dose; format: cell-based; conditions: CNS Cancer, SF-295, single dose
[54] = test system: SF-539; experiment: NCI 60 cell line panel, single dose; format: cell-based; conditions: CNS Cancer, SF-539, single dose
[55] = test system: SNB-19; experiment: NCI 60 cell line panel, single dose; format: cell-based; conditions: CNS Cancer, SNB-19, single dose
[56] = test system: SNB-75; experiment: NCI 60 cell line panel, single dose; format: cell-based; conditions: CNS Cancer, SNB-75, single dose
[57] = test system: U251; experiment: NCI 60 cell line panel, single dose; format: cell-based; conditions: CNS Cancer

C=C[C@H]1C[N@@]2CC[C@H]1C[C@H]2[C@H](O)c1ccnc2ccc(OC)cc12 [Quinine]
pKa1 [1]: approximately 4.2
pKa2 [1]: 8.5

copper(II)-(quinine)2^+ [CuQ2]
Growth Percent [2]: 120.5%
Growth Percent [3]: 88.43%
Growth Percent [4]: 100.6%
Growth Percent [5]: 107.4%
Growth Percent [6]: 109.9%
Growth Percent [7]: 100.1%
Growth Percent [8]: 91.74%
Growth Percent [9]: 113.3%
Growth Percent [10]: 119.3%
Growth Percent [11]: 108.9%
Growth Percent [12]: 96.95%
Growth Percent [13]: 98.35%
Growth Percent [14]: 106.2%
Growth Percent [15]: 132.7%
Growth Percent [16]: 88.14%
Growth Percent [17]: 117.5%
Growth Percent [18]: 84.68%
Growth Percent [19]: 124.1%
Growth Percent [20]: 91.04%
Growth Percent [21]: 80.61%
Growth Percent [22]: 101.1%
Growth Percent [23]: 105.7%
Growth Percent [24]: 84.97%
Growth Percent [25]: 82.36%
Growth Percent [26]: 91.47%
Growth Percent [27]: 117.8%
Growth Percent [28]: 96.49%
Growth Percent [29]: 103.6%
Growth Percent [30]: 104.3%
Growth Percent [31]: 119.9%
Growth Percent [32]: 105.8%
Growth Percent [33]: 94.89%
Growth Percent [34]: 105%
Growth Percent [35]: 120%
Growth Percent [36]: 110.4%
Growth Percent [37]: 116.2%
Growth Percent [38]: 103.8%
Growth Percent [39]: 105.8%
Growth Percent [40]: 139.9%
Growth Percent [41]: 109.2%
Growth Percent [42]: 95.24%
Growth Percent [43]: 95.07%
Growth Percent [44]: 109.4%
Growth Percent [45]: 80.32%
Growth Percent [46]: 111%
Growth Percent [47]: 100.1%
Growth Percent [48]: 115%
Growth Percent [49]: 93.34%
Growth Percent [50]: 84.78%
Growth Percent [51]: 92.23%
Growth Percent [52]: 125.4%
Growth Percent [53]: 85.7%
Growth Percent [54]: 102.4%
Growth Percent [55]: 108.7%
Growth Percent [56]: 126.4%
Growth Percent [57]: 83.16%
